# Measured values taken from patent US20030171400A1, “Heterocyclic side chain containing metalloprotease inhibitors” (priority 2000, published 2003).
# Legend:
# Assay type in all cases: in vivo
# [1] = tested on: human subject suffering from rheumatoid arthritis; test: Example A: tablet treatment of a subject suffering from rheumatoid arthritis; conditions: tablet with 15 mg compound, three tablets per day orally for 2 years, 60 kg human
# Method: A tablet composition for oral administration, according to the present invention, is made comprising:
# A human subject weighing 60 kg (132 lbs), suffering from rheumatoid arthritis, is treated by a method of this invention. Specifically, for 2 years, a regimen of three tablets per day is administered orally to said subject.
# asthma sufferer = test: Example E: inhalation aerosol for asthma; conditions: 5.0% w/v inhalation aerosol, 0.01 mL sprayed into the mouth while inhaling
# Method: An inhalation aerosol composition, according to the present invention, is made comprising: An asthma sufferer sprays 0.01 mL via a pump actuator into the mouth while inhaling.
# [2] = tested on: human subject suffering from osteoarthritis; test: Example B: capsule treatment of a subject suffering from osteoarthritis; conditions: capsule containing 70 mg daily for 5 years, 90 kg human
# Method: A capsule for oral administration, according to the present invention, is made comprising:
# A human subject weighing 90 kg (198 lbs.), suffering from osteoarthritis, is treated by a method of this invention. Specifically, for 5 years, a capsule containing 70 mg of the compound of Example 3 is administered daily to said subject.
smiles,measurement,setting,value
"COCCOC(=O)N1CCC(C(NS(=O)(=O)c2ccc(-c3ccc(OC)cc3)cc2)C(=O)O)CC1 (stereo not drawn) [Example 31, 4-[Carboxy-(4′-methoxy-biphenyl-4-sulfonylamino)-methyl]-piperidine-1-carboxylic acid 2-methoxy-ethyl ester]","patient examination at the end of the treatment period (inflammation, mobility, pain)",[1],"reduced inflammation, and improved mobility without concomitant pain"
"COc1ccc(-c2ccc(S(=O)(=O)NC3(C(=O)O)CCNCC3)cc2)cc1 [Example 56, 4-(4′-Methoxy-biphenyl-4-sulfonylamino)-piperidine-4-carboxylic acid]",asthma symptoms,asthma sufferer,Asthma symptoms are diminished
"CC(C)(C)OC(=O)N1CCC(C(NS(=O)(=O)c2ccc(Oc3ccccc3)cc2)C(=O)O)CC1 (stereo not drawn) [Example 3, 4-[Carboxy-(4-phenoxy-benzenesulfonylamino)-methyl]-piperidine-1-carboxylic acid tert-butyl ester]","erosion/fibrillation of the articular cartilage via x-ray, arthroscopy and/or MRI at the end of treatment",[2],no further advancement of erosion/fibrillation of the articular cartilage
